# Assay results taken from publication PMC9014415, “Repositioning of a Diaminothiazole Series Confirmed to Target the Cyclin-Dependent Kinase CRK12 for Use in the Treatment of African Animal Trypanosomiasis” (Journal of Medicinal Chemistry, 2022).
# How the values were obtained:
# [1] = Bovine hepatocyte stability; type: in vitro ADME; details: intrinsic clearance
# Protocol: collagen coated cell culture plates for 10 minutes at 37 °C, 5% CO2. Upon addition of an equal volume of supplemented WME containing 1 µM test compound, an aliquot of incubation solution was removed to acetonitrile containing internal standard (final concentration 0.5 µM test compound and a cell density of 0.25 million cells/mL). Similarly, aliquots were removed at 3, 6, 9, 15, 30, 45, 60, 90 and 120 min. 100 µL of 80:20 water:acetonitrile was added to all samples and the analysis plate was centrifuged (10 min, 1,665 g, RT) prior to injection and analysis of samples by UPLC-MS/MS. The response (area ratio of test compound relative to internal standard) was plotted against time using an exponential decay model and rate of disappearance calculated. Hepatocyte CLint (mL/min/10^6 cells) was scaled to in vivo CLint (ml/min/g Liver) using the hepato-cellularity scaling factor of 120 x […]
# (b) Bovine hepatocyte stability. Freshly isolated female bovine (Prim’Holstein) hepatocytes were supplied by Biopredic InternationalTM. […]
# of 80:20 water:acetonitrile was added to all samples and the analysis plate was centrifuged (10 min, 1,665 g, RT) prior to injection and analysis of samples by UPLC-MS/MS. The response (area ratio of test compound to internal standard) was plotted against time using an exponential decay model and rate of disappearance calculated. […]
# in vivo = details: NMRI, mouse
# Protocol: 2.4 Protein plasma binding
# This was determined as previously described.6
# 2.5 PK and maximum tolerated dose - mouse
# PK studies in female NMRI mice (Figure S1): Test compounds 1, 2 and 10 were dosed SC at 10 mg free base/kg (dose volume 10 mL/kg; dose vehicle: 5% (v/v) DMSO, 40% polyethylene glycol 400 (PEG400) and 55% deionized water) to female NMRI mice (n = 3). Blood samples (10 μL) were taken from each mouse at 0.08, 0.25, 0.5, 1, 2, 4, 6, 8 h post dose (24 h post dose for compounds 2 and 10 only) and mixed with two volumes of deionized water (20 μL). Alternatively, compound 2 was delivered for 48 h via SC implanted ALZET osmotic pumps (10, 25 and 50 mg free base/mL, vehicle: 50% DMSO and 50% deionized water) to the female NMRI mouse (n = 3). Blood samples (10 μL) from each mouse were taken at 1, 3, 6, 24, 30 and 48 h post-dose and mixed with two volumes of deionized water (20 μL). […]
# Response to treatment was determined by monitoring parasitaemia twice a week until day 21. […]
# In each of the cattle efficacy studies (3.3, 3.4 and 3.5), efficacy was assessed primarily on absence of recrudescence of parasitaemia for 100 days after treatment administration together with improvements in Packed Cell Volume, body weight and clinical signs of infected compared with uninfected animals. […]
Structure (SMILES),Bovine Hepatocyte Cli [1],Cmax (in vivo)
"CC(C)CS(=O)(=O)N[C@H]1CC[C@H](Nc2nc(N)c(C(=O)c3c(F)cccc3F)s2)CC1 [Compound 1, N-((trans)-4-((4-Amino-5-(2,6-difluorobenzoyl)thiazol-2-yl)amino)cyclohexyl)-2-methylpropane-1-sulfonamide]",<0.5 / 0.5 mL/min/g,
"CC(C)CS(=O)(=O)N[C@H]1CC[C@H](Nc2nc(N)c(C(=O)c3c(F)cc(CN(C)C)cc3F)s2)CC1 [Compound 2, N-(trans)-[4-[[4-Amino-5-[4-(dimethylaminomethyl)-2,6-difluoro-benzoyl]thiazol-2-yl]amino]cyclohexyl]-2-methyl-propane-1-sulfonamide]",,34 to 65 ng/mL
